Measured values published in PubChem BioAssay (NCI).
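Test compounds were applied to cells in 96-well plates for 48 hours at 5 doses. Here, GI50 denotes the concentration required for 50% inhibition of growth. The concentration for full growth arrest is given as TGI.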

Legend:
Test in all cases: growth of human tumour cells (NCI), 48 h
SF-268 CNS = system: SF-268 CNS
HL-60(TB) leukemia = system: HL-60(TB) leukemia
CAKI-1 renal = system: CAKI-1 renal
SR leukemia = system: SR leukemia
OVCAR-3 ovarian = system: OVCAR-3 ovarian
OVCAR-5 ovarian = system: OVCAR-5 ovarian
U251 CNS = system: U251 CNS
RXF 393 renal = system: RXF 393 renal
PC-3 prostate = system: PC-3 prostate
A549 NSCLC = system: A549 NSCLC
HCT-116 colon = system: HCT-116 colon
786-0 renal = system: 786-0 renal
RPMI-8226 leukemia = system: RPMI-8226 leukemia
K-562 leukemia = system: K-562 leukemia
HS 578T breast = system: HS 578T breast
SK-MEL-28 melanoma = system: SK-MEL-28 melanoma
CCRF-CEM leukemia = system: CCRF-CEM leukemia
UACC-62 melanoma = system: UACC-62 melanoma
MOLT-4 leukemia = system: MOLT-4 leukemia
SK-OV-3 ovarian = system: SK-OV-3 ovarian
M14 melanoma = system: M14 melanoma
SF-295 CNS = system: SF-295 CNS
SN12C renal = system: SN12C renal
UO-31 renal = system: UO-31 renal
COLO 205 colon = system: COLO 205 colon
MCF7 breast = system: MCF7 breast
SF-539 CNS = system: SF-539 CNS
NCI/ADR-RES ovarian = system: NCI/ADR-RES ovarian
HOP-92 NSCLC = system: HOP-92 NSCLC
LOX IMVI melanoma = system: LOX IMVI melanoma
KM12 colon = system: KM12 colon
SK-MEL-5 melanoma = system: SK-MEL-5 melanoma
HT29 colon = system: HT29 colon
SNB-19 CNS = system: SNB-19 CNS
A498 renal = system: A498 renal
MALME-3M melanoma = system: MALME-3M melanoma
HCT-15 colon = system: HCT-15 colon
NCI-H226 lung = system: NCI-H226 lung
MDA-MB-435 = system: MDA-MB-435
UACC-257 melanoma = system: UACC-257 melanoma
T-47D breast = system: T-47D breast
NCI-H460 lung = system: NCI-H460 lung
NCI-H23 lung = system: NCI-H23 lung
TK-10 renal = system: TK-10 renal
OVCAR-8 ovarian = system: OVCAR-8 ovarian
MDA-MB-231 breast = system: MDA-MB-231 breast
NCI-H522 lung = system: NCI-H522 lung
EKVX NSCLC = system: EKVX NSCLC
HOP-62 NSCLC = system: HOP-62 NSCLC
IGROV1 ovarian = system: IGROV1 ovarian
BT-549 breast = system: BT-549 breast
SK-MEL-2 melanoma = system: SK-MEL-2 melanoma
OVCAR-4 ovarian = system: OVCAR-4 ovarian
SNB-75 CNS = system: SNB-75 CNS
ACHN renal = system: ACHN renal
SW-620 colon = system: SW-620 colon
DU-145 prostate = system: DU-145 prostate

**Q.** Which results are given for `C[C@@H](NC(=O)Cc1cc(F)cc(F)c1)C(=O)N[C@@]1(C)N=C(c2ccccc2)c2ccccc2N(C)C1=O`?
**A.** GI50 (SF-268 CNS): 30.9 µM; TGI (SF-268 CNS): > 100 µM; GI50 (HL-60(TB) leukemia): 10.6 µM; TGI (HL-60(TB) leukemia): > 55.4 µM; GI50 (CAKI-1 renal): 11.7 µM; TGI (CAKI-1 renal): > 56.8 µM; GI50 (SR leukemia): 2.5 µM; TGI (SR leukemia): > 22.7 µM; GI50 (OVCAR-3 ovarian): 30 µM; TGI (OVCAR-3 ovarian): > 100 µM; GI50 (OVCAR-5 ovarian): > 83.5 µM; TGI (OVCAR-5 ovarian): > 100 µM; GI50 (U251 CNS): > 84.8 µM; TGI (U251 CNS): > 100 µM; GI50 (RXF 393 renal): 30.7 µM; TGI (RXF 393 renal): > 100 µM; GI50 (PC-3 prostate): 25.6 µM; TGI (PC-3 prostate): > 100 µM; GI50 (A549 NSCLC): 66.1 µM; TGI (A549 NSCLC): > 100 µM; GI50 (HCT-116 colon): 32.2 µM; TGI (HCT-116 colon): > 100 µM; GI50 (786-0 renal): > 100 µM; TGI (786-0 renal): > 100 µM; GI50 (RPMI-8226 leukemia): 2.11 µM; TGI (RPMI-8226 leukemia): 10.5 µM; GI50 (K-562 leukemia): 32.6 µM; TGI (K-562 leukemia): > 94.1 µM; GI50 (HS 578T breast): 24.7 µM; TGI (HS 578T breast): > 100 µM; GI50 (SK-MEL-28 melanoma): > 100 µM; TGI (SK-MEL-28 melanoma): > 100 µM; GI50 (CCRF-CEM leukemia): 24.6 µM; TGI (CCRF-CEM leukemia): > 100 µM; GI50 (UACC-62 melanoma): 32.4 µM; TGI (UACC-62 melanoma): > 89 µM; GI50 (MOLT-4 leukemia): 11.7 µM; TGI (MOLT-4 leukemia): 50.1 µM; GI50 (SK-OV-3 ovarian): > 100 µM; TGI (SK-OV-3 ovarian): > 100 µM; GI50 (M14 melanoma): 26 µM; TGI (M14 melanoma): > 86.6 µM; GI50 (SF-295 CNS): 42.8 µM; TGI (SF-295 CNS): > 100 µM; GI50 (SN12C renal): 32 µM; TGI (SN12C renal): 97.5 µM; GI50 (UO-31 renal): 30.5 µM; TGI (UO-31 renal): > 100 µM; GI50 (COLO 205 colon): 47.2 µM; TGI (COLO 205 colon): > 100 µM; GI50 (MCF7 breast): 36.5 µM; TGI (MCF7 breast): > 100 µM; GI50 (SF-539 CNS): > 56 µM; TGI (SF-539 CNS): > 100 µM; GI50 (NCI/ADR-RES ovarian): 31.9 µM; TGI (NCI/ADR-RES ovarian): > 90.7 µM; GI50 (HOP-92 NSCLC): 19.8 µM; TGI (HOP-92 NSCLC): > 67.7 µM; GI50 (LOX IMVI melanoma): 45.7 µM; TGI (LOX IMVI melanoma): > 100 µM; GI50 (KM12 colon): 41.3 µM; TGI (KM12 colon): > 100 µM; GI50 (SK-MEL-5 melanoma): 35.2 µM; TGI (SK-MEL-5 melanoma): > 100 µM; GI50 (HT29 colon): 49.4 µM; TGI (HT29 colon): > 100 µM; GI50 (SNB-19 CNS): > 100 µM; TGI (SNB-19 CNS): > 100 µM; GI50 (A498 renal): 1.13 µM; TGI (A498 renal): 42.6 µM; GI50 (MALME-3M melanoma): > 60.8 µM; TGI (MALME-3M melanoma): > 100 µM; GI50 (HCT-15 colon): > 78.1 µM; TGI (HCT-15 colon): > 100 µM; GI50 (NCI-H226 lung): 24 µM; TGI (NCI-H226 lung): 71.9 µM; GI50 (MDA-MB-435): 38.9 µM; TGI (MDA-MB-435): > 100 µM; GI50 (UACC-257 melanoma): 37.5 µM; TGI (UACC-257 melanoma): > 100 µM; TGI (T-47D breast): > 66.6 µM; GI50 (NCI-H460 lung): 40.4 µM; TGI (NCI-H460 lung): > 100 µM; GI50 (NCI-H23 lung): 43.4 µM; TGI (NCI-H23 lung): > 100 µM; GI50 (TK-10 renal): 31.2 µM; TGI (TK-10 renal): > 88.8 µM; GI50 (OVCAR-8 ovarian): 65.1 µM; TGI (OVCAR-8 ovarian): > 100 µM; GI50 (MDA-MB-231 breast): 15.9 µM; TGI (MDA-MB-231 breast): > 96.6 µM; GI50 (NCI-H522 lung): 69.2 µM; TGI (NCI-H522 lung): > 100 µM; GI50 (EKVX NSCLC): 30.2 µM; TGI (EKVX NSCLC): > 85.8 µM; GI50 (HOP-62 NSCLC): 64.7 µM; TGI (HOP-62 NSCLC): > 100 µM; GI50 (IGROV1 ovarian): > 65.6 µM; TGI (IGROV1 ovarian): > 100 µM; GI50 (BT-549 breast): 9.6 µM; TGI (BT-549 breast): > 66.4 µM; GI50 (SK-MEL-2 melanoma): > 100 µM; TGI (SK-MEL-2 melanoma): > 100 µM; GI50 (OVCAR-4 ovarian): > 100 µM; TGI (OVCAR-4 ovarian): > 100 µM; GI50 (SNB-75 CNS): > 95.3 µM; TGI (SNB-75 CNS): > 100 µM; GI50 (ACHN renal): > 84.5 µM; TGI (ACHN renal): > 100 µM; GI50 (SW-620 colon): 94.4 µM; TGI (SW-620 colon): > 100 µM; GI50 (DU-145 prostate): 30.2 µM; TGI (DU-145 prostate): > 100 µM
